Results: ChEMBL document CHEMBL1123108 (J Med Chem, 1985)

Key:
Aromatase [1] = biological target: T1, Aromatase (Homo sapiens, UniProt P11511); assay: Inhibition of Cytochrome P450 19A1 at 20 ug/mL
T1 sequence (P11511 whole entry): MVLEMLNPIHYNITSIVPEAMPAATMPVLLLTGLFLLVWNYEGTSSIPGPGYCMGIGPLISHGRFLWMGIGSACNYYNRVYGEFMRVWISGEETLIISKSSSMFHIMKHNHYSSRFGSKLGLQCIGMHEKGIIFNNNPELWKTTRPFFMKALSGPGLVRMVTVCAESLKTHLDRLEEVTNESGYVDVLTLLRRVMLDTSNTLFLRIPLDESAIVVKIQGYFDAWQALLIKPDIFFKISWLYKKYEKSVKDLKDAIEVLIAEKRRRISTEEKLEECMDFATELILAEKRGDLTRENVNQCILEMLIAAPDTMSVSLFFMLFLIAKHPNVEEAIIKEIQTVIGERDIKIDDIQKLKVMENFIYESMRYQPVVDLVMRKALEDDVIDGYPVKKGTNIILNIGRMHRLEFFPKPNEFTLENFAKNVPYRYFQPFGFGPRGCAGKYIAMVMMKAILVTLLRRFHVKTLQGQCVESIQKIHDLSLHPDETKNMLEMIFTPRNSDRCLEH

[2] = biological target: T2, Cytochrome P450 11A1 (desmolase, cholesterol side-chain cleavage enzyme) (Bos taurus, UniProt P00189); assay: Inhibition of bovine adrenal desmolase cytochrome P450 11A1 at 50 ug/mL; conditions: cattle
T2 sequence (P00189 whole entry): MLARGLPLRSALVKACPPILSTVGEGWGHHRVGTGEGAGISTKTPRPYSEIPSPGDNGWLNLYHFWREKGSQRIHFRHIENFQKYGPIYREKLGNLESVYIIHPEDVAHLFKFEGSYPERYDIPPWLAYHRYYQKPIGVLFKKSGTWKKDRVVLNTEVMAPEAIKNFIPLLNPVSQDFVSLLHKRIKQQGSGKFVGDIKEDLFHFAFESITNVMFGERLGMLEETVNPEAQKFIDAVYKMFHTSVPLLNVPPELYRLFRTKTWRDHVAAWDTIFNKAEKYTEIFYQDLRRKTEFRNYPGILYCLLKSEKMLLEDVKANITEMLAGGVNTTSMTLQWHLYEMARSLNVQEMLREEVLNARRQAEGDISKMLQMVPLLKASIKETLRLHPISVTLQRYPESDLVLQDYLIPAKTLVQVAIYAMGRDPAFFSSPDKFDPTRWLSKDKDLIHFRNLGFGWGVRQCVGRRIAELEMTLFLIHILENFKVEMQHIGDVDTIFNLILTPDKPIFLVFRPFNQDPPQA

[3] = biological target: T3, Cholesterol side-chain cleavage enzyme, mitochondrial (Bos taurus, UniProt P00189); assay: Inhibition of bovine adrenal desmolase at 50 ug/mL; None; conditions: cattle; at 50 µg/mL
T3 sequence (P00189 whole entry): T2 sequence (P00189 whole entry)

Aromatase [4] = biological target: T1, Aromatase; assay: Inhibition of Cytochrome P450 19A1 at 20 ug/mL; None; conditions: at 20 µg/mL

Row | inhibition at 20 µg/mL (Aromatase [1]) | inhibition at 50 ug/mL [2] | Inhibition [3] | Inhibition (Aromatase [4]) | Structure (SMILES)
1 | 27% | 38% |  |  | CCC1(c2ccncc2)CCC(=O)N(N)C1=O (configuration not stated)
2 |  |  | Not Active |  | CCC1(c2ccncc2)CCC(=O)NC1=O (configuration not stated) [ROGLETIMIDE]
3 |  |  | Not Active | Not Active | CCC1(c2cc[n+]([O-])cc2)CCC(=O)NC1=O (configuration not stated)
4 | 25% |  | Not Active |  | CCC1(c2c(F)c(F)nc(F)c2F)CCC(=O)NC1=O (configuration not stated)
